Experimental data published in patent US6706664B1, “Benzoxazole compounds, process for the preparation thereof and herbicides” (UBE Industries, Ltd., priority 1999, dated 2004).

Tests used:
Design in all cases: key: 0: normal development; 1: Less damaged; 2: Slightly damaged; 3: Moderately damaged; 4: Severely damaged; 5: All killed
green foxtail [1] = test: Foliar spread test for upland field; type: in vivo, Setaria viridis; conditions: foliar spray 500 ppm, 3 weeks, rank vs non-treated
In short: (§1)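 Scoring used a 0–5 scale, where 0 meant normal development and 5 meant all plants killed, assessed 3 weeks after treatment. Plants had been grown about 2 weeks from seed in volcanic ash soil before a uniform spray at 500 ppm containing 0.5% surfactant.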

monochoria = test: Herbicidal test for paddy field; type: in vivo, Monochoria vaginalis; conditions: paddy field pot, 500 g/ha dropwise at 1.5 leaf stage of barnyardgrass, 3 weeks, rank vs non-treated
In short: (§2)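 Scores run on a six-point scale from 0 for normal development to 5 for all plants killed, judged against non-treated pots. Plants were grown in Ube soil under 3 cm of standing water and treated by pipet with 500 g/ha of the compound once barnyardgrass had 1.5 leaves. Assessment followed 3 weeks in a glasshouse averaging 25° C.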

velvetleaf = test: Foliar spread test for upland field; type: in vivo, Abutilon theophrasti; conditions: foliar spray 500 ppm, 3 weeks, rank vs non-treated
In short: as §1

Large crabgrass [2] = test: Soil treatment test for upland field; type: in vivo, Digitaria adscendens; conditions: 500 g/ha, glass house 25° C., 3 weeks
In short: (§3)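 Soil treatment, 500 g/ha, sprayed onto soil surface after sowing; alluvial Ube soil; 0.05% surfactant in diluent; glasshouse, avg 25° C, 3 wk; visual score 0–5 (5 = all killed).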

young rice plant = test: Herbicidal test for paddy field; type: in vivo; conditions: paddy field pot, 500 g/ha dropwise at 1.5 leaf stage of barnyardgrass, 3 weeks, rank vs non-treated
In short: as §2

Large crabgrass [3] = test: Foliar spread test for upland field; type: in vivo, Digitaria adscendens; conditions: foliar spray 500 ppm, 3 weeks, rank vs non-treated
In short: as §1

blackgrass [4] = test: Soil treatment test for upland field; type: in vivo, Alopecurus aegualis; conditions: 500 g/ha, glass house 25° C., 3 weeks
In short: as §3

morning glory = test: Foliar spread test for upland field; type: in vivo, Ipomoea spps.; conditions: foliar spray 500 ppm, 3 weeks, rank vs non-treated
In short: as §1

common lambsquartes = test: Foliar spread test for upland field; type: in vivo, Chenopodium album; conditions: foliar spray 500 ppm, 3 weeks, rank vs non-treated
In short: as §1

livid amaranth [5] = test: Soil treatment test for upland field; type: in vivo, Amaranthus lividus; conditions: 500 g/ha, glass house 25° C., 3 weeks
In short: as §3

livid amaranth [6] = test: Foliar spread test for upland field; type: in vivo, Amaranthus lividus; conditions: foliar spray 500 ppm, 3 weeks, rank vs non-treated
In short: as §1

annual bluegrass [7] = test: Soil treatment test for upland field; type: in vivo, Poa annua; conditions: 500 g/ha, glass house 25° C., 3 weeks
In short: as §3

green foxtail [8] = test: Soil treatment test for upland field; type: in vivo, Setaria viridis; conditions: 500 g/ha, glass house 25° C., 3 weeks
In short: as §3

sugar beat = test: Foliar spread test for upland field; type: in vivo; conditions: foliar spray 500 ppm, 3 weeks, rank vs non-treated
In short: (§4)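 Wettable powders at 500 ppm, with 0.5% surfactant, were sprayed uniformly over plants raised for roughly 2 weeks in glasshouse pots of volcanic ash soil. Herbicidal damage rated on a 0–5 scale (5 = all killed) after a further 3 weeks at an average 25 °C.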

solgum = test: Foliar spread test for upland field; type: in vivo; conditions: foliar spray 500 ppm, 3 weeks, rank vs non-treated
In short: as §4

wheat = test: Foliar spread test for upland field; type: in vivo; conditions: foliar spray 500 ppm, 3 weeks, rank vs non-treated
In short: as §4

corn = test: Foliar spread test for upland field; type: in vivo; conditions: foliar spray 500 ppm, 3 weeks, rank vs non-treated
In short: as §4

blackgrass [9] = test: Foliar spread test for upland field; type: in vivo, Alopecurus aegualis; conditions: foliar spray 500 ppm, 3 weeks, rank vs non-treated
In short: as §1

annual bluegrass [10] = test: Foliar spread test for upland field; type: in vivo, Poa annua; conditions: foliar spray 500 ppm, 3 weeks, rank vs non-treated
In short: as §1

Row | SMILES | Effects Green foxtail (green foxtail [1]) | Effect Monochoria (monochoria) | Effects Velvetleaf (velvetleaf) | Effects Large crabgrass (Large crabgrass [2]) | Effect Young rice plant (young rice plant) | Effects Large crabgrass (Large crabgrass [3]) | Effects Blackgrass (blackgrass [4]) | Effects Morning glory (morning glory) | Effects Common lambsquarters (common lambsquartes) | Effects Livid amaranth (livid amaranth [5]) | Effects Livid amaranth (livid amaranth [6]) | Effects Annual bluegrass (annual bluegrass [7]) | Effects Green foxtail (green foxtail [8]) | Effects Sugar beat (sugar beat) | Effects Solgum (solgum) | Effects Wheat (wheat) | Effects Corn (corn) | Effects Blackgrass (blackgrass [9]) | Effects Annual bluegrass (annual bluegrass [10])
1 | CCC(Oc1ccc(F)c(C(F)(F)F)c1)c1nc2cc(F)ccc2o1 (stereo not shown) [Compound 119, 1-(5-fluorobenzoxazol-2-yl)-1-(4-fluoro-3-(trifluoromethyl)phenoxy)propane] | 1 | 4 | 2 | 5 | 1 | 1 | 3 | 3 | 4 | 5 | 4 | 5 | 5 | 3 | 1 | 1 | 2 |  | 
2 | CC(Oc1ccc(F)c(C(F)(F)F)c1)c1nc2cc(Cl)ccc2o1 (stereo not shown) [Compound 137] | 3 | 3 | 1 | 5 | 1 | 1 | 3 | 2 |  | 5 | 4 | 5 | 5 | 5 | 1 | 1 | 2 |  | 
3 | CCC(Oc1cccc(C(F)(F)F)c1)c1nc2cc(Br)ccc2o1 (stereo not shown) [Compound 166] | 3 | 5 | 2 | 5 | 1 | 3 | 3 | 4 | 4 | 5 | 4 | 5 | 5 | 4 | 1 | 1 | 3 | 1 | 
4 | CCCC(Oc1cccc(C(F)(F)F)c1)c1nc2cc(C#N)c(C#N)cc2o1 (stereo not shown) [Compound 317] | 5 | 5 | 3 | 5 | 1 |  | 5 |  | 5 | 5 | 5 | 5 | 5 | 5 | 1 | 2 | 2 | 2 | 5
5 | CCCC(Oc1ccc(F)c(C(F)(F)F)c1)c1nc2cc(F)c(Cl)cc2o1 (stereo not shown) [Compound 494] | 3 | 5 | 2 | 5 |  |  | 5 | 2 | 4 | 5 | 5 | 5 | 5 | 3 | 1 | 1 | 2 |  | 
6 | CCCC(Oc1cccc(C(F)(F)F)c1)c1nc2cc(F)c(Cl)cc2o1 (stereo not shown) [Compound 497] | 4 | 4 | 3 | 5 | 2 | 2 |  |  | 2 | 5 | 5 | 4 | 5 | 5 | 1 | 2 | 2 |  | 2
7 | CCC(Oc1cccc(C#N)c1)c1nc2cc(F)c(Cl)cc2o1 (stereo not shown) [Compound 498] | 4 | 2 | 2 | 5 | 1 | 3 | 4 |  |  | 5 | 4 | 5 | 5 | 4 | 1 | 2 | 1 |  | 2
8 | CCC(Oc1cccc(OC(F)(F)F)c1)c1nc2cc(C#N)c(C#N)cc2o1 (stereo not shown) [Compound 527] | 5 | 4 | 3 | 5 | 2 | 2 | 4 |  | 5 | 5 | 5 | 5 | 5 | 5 | 1 | 2 |  | 2 | 5
9 | CCC(Oc1cccc(C(F)(F)F)c1)c1nc2cc(C#N)c(Cl)cc2o1 (stereo not shown) [Compound 529] | 5 | 5 | 3 | 5 |  | 4 | 5 | 3 | 5 | 5 | 5 | 5 | 5 | 5 | 3 | 2 |  | 4 | 4
10 | CCCC(Oc1cccc(C(F)(F)F)c1)c1nc2cc(C#N)c(Cl)cc2o1 (stereo not shown) [Compound 532] | 5 | 5 | 3 | 5 |  | 4 | 5 | 3 | 5 | 5 | 5 | 5 | 5 | 5 | 2 |  | 2 | 4 | 4
